Data: patent publication US11241410B2, “Method and compound for the treatment of covid-19” (priority 2020, dated 2022)
In brackets after ≈: the same amount, converted by molar mass. Entries after “also recorded” stand apart in the source; their conditions may differ. Like-named read-outs stand apart in the source and are kept apart here.

How the values were obtained:
[1] = test system: CHL cells; details: cited from earlier work
[2] = test system: ovariectomized adult Spraque-Dawley (CD) rats; details: 500-2000 mg/kg/day for 7 days, oral gavage, up to maximally tolerated dose; cited from earlier work
[3] = Table 10 summary; cited from earlier work
[4] = test system: rats; details: cited from earlier work
[5] = test system: bacterial; details: with and without metabolic activation; cited from earlier work
[6] = cited from earlier work
[7] = test system: MDR-27221 HIV strain; assay: microbe, parasite or virus in culture; format: cell-based, HIV-1
[8] = test system: mouse lymphoma cells; details: with and without metabolic activation; cited from earlier work
[9] = test system: SARS-CoV-2; assay: microbe, parasite or virus in culture; format: cell-based
[10] = test system: rats; details: OECD 401; cited from earlier work
[11] = cited from earlier work; remark: listed apart in the source
[12] = test system: rat; details: cited from earlier work
[13] = test system: eye of the rabbit; details: single instillation, listed as DEGD; cited from earlier work
[14] = test system: Daphnia; details: in vivo; cited from earlier work
[15] = test system: gamma interferon; assay: Production of gamma interferon by cells; format: cell-based; details: compared with positive control PMA-Ionomycin combination
Description: FIG. 4 illustrates a graph showing production of gamma interferon by cells receiving 90I compared to other drugs, according to an exemplary embodiment of the present general inventive concept.
Referring to FIG. 4, furthermore, 90I has proven to stimulate the production of gamma interferon (i.e. a dimerized soluble cytokine that is the only member of the type II class of interferons and is a product of human leukocytes and human lymphocytes). More specifically, […] and differentiate into tissue macrophages, such that each of the tissue macrophages may serve as a vehicle for transporting viruses to a variety of tissues. The ability of antiretroviral agents to cross the blood brain barrier is one important consideration, since the brain acts as a sanctuary for viruses as well as a site for disease progression.
Referring again to FIG. 4, activated CD8+ cells are reported to produce high levels of gamma interferon, which may be involved in the anti-HIV-1 immune responses, contributing to both control of viral spread and concomitant lymphoid follicular lyses. […] This finding may have a far-reaching implication and relevant to interleukin 12 (IL-12) (i.e. a cytokine that is produced by activated antigen-presenting cells, such as dendritic cells and/or macrophages). […]

[16] = test system: rats; details: cited from earlier work; remark: listed apart in the source
[17] = test system: intact rabbit skin; details: semi-occlusive, four hours, listed as DEGD; cited from earlier work
[18] = test system: HIV; assay: HIV in vitro tests (Table 1); format: cell-based
[19] = test system: Seleneastrum capricornutum; details: in vivo; cited from earlier work
[20] = test system: activated sludge; details: cited from earlier work
[21] = 28 days; cited from earlier work
[22] = test system: Pseudomonas putida; details: cited from earlier work
[23] = test system: CEM-SS cells; assay: Drug induced toxicity in CEM-SS cells; format: cell-based; details: Homo sapiens, read-out: 50% inhibitory concentration (IC50), drug induced toxicity, high-test concentration 100 ug/ml
[24] = rats, cited from earlier work
[25] = test system: Pimephales promelas; details: acute, 96 h; cited from earlier work
[26] = test system: dogs; details: up to 300 mg/kg/day for 90 days; cited from earlier work
[27] = test system: RF laboratory strain of HIV-1; assay: Antiviral drug assay in CEM-SS cells; format: cell-based; details: Human immunodeficiency virus 1, CEM-SS, read-out: 50% effective concentration (EC50)
[28] = test system: Eisenia foetida; details: cited from earlier work
[29] = test system: Vero E6 cells; assay: Toxicity in Vero E6 cells; format: cell-based
Procedure: Remdesivir was used as a control and verified that the assay was working. The first independent trial (done in quadruplicate) involved using the very first BTS compound sent to us, dissolved at 10 ug/ml in DMSO. Toxicity was observed ˜0.078 ug/ml ([…] based on the molecular weight we were given and the concentration of the drug). The dose curve (log (inhibitor) vs. response (three parameters)) yielded the nicest curve, but only reached a maximum of ˜20% protection. […] Twenty-two 2-fold dilutions of the drug starting from 10 ug/ml (˜323 uM).
FIG. 18 illustrates a graph showing 90I toxicity in Vero E6 cells, according to an exemplary embodiment of the present general inventive concept.

[30] = test system: guinea pigs; details: intradermal and topical, listed as DEGD; cited from earlier work
[31] = test system: Huh7; details: Huh7, 4 days, CellTiter Glo, reference compound; cited from earlier work
[32] = test system: HCoV; details: Huh7, 4 days, 96 well, reference compound; cited from earlier work
[33] = molecular target: T1, SARS-CoV-2 main protease (Severe acute respiratory syndrome coronavirus 2, UniProt P0DTD1); details: auto dock; cited from earlier work
T1 construct: also MProtease (SARS-CoV-2 main protease)

[34] = molecular target: T2, Mpro (Severe acute respiratory syndrome coronavirus 2, UniProt P0DTD1); details: Mpro and substrate, 40 min, 384 well; cited from earlier work
T2 construct: also MProtease (SARS-CoV-2 main protease)

[35] = test system: COVID-19; details: after one month; control arm 12.8%, difference not statistically significant; cited from earlier work
[36] = Severe acute respiratory syndrome coronavirus 2, preliminary, first independent trial
[37] = from ppm by standard conversion factors
[38] = HIV in vitro tests, read-out: EC50

O=C(OCCOCCOC(=O)c1ccccc1)c1ccccc1 [90I, diethylene glycol dibenzoate]
clastogenic activity [1]: No response considered to be indicative of clastogenic
estrogenic activity [2]: did not exhibit estrogenic activity
Genotoxicity [3]: Negative
Maternal toxicity ([4]; Table 10 summary): 1,000 mg/kg bw/day
Reproductive toxicity (NOEL) ([4]; Table 10 summary): 250 mg/kg bw/day
Reproductive toxicity NOAEL ([4]; Table 10 summary): 500 mg/kg bw/day
Reproductive toxicity, D ([4]; Table 10 summary): D: Yes
NOAEL for prenatal development ([4]; rats, diet): 500 mg/kg/day
NOEL for fetal growth and development ([4]; rats, diet): 250 mg/kg/day
NOEL for maternal toxicity ([4]; rats, diet): 1,000 mg/kg/day
mutagenic potential, bacterial [5]: did not demonstrate mutagenic potential
Water solubility [6]: 193 µg/mL
EC50 ([7]; Human immunodeficiency virus 1): 3 µg/mL (≈ 9.54 µM)
inhibition of the MDR strain ([7]; MDR-27221): strong inhibitory activity
mutagenic potential, mammalian cell [8]: did not demonstrate mutagenic potential
EC50 [9, 36]: 4100 nM
IC50 [9, 36]: 2.8 nM
maximum protection ([9]; dose curve log(inhibitor) vs. response, SARS-CoV-2 infected cells): ~20%
LD50, oral [10]: 4,198 mg/kg bw
Log P [11]: 3.04
Repeat dose, NOAEL ([12]; Table 10 summary): 1,000 mg/kg bw/day
NOAEL ([12]; rat, thirteen week, diet): 1,000 mg/kg bw
Eye irritation [13]: transient very slight conjunctival irritation only; also recorded: Slight
EC50 for Daphnia [14]: 6.7 µg/mL
amount of gamma interferon produced [15]: equivalent to that of the positive control
Reproductive toxicity, R ([16]; Table 10 summary): R: No
NOAEL for the FO and FI parent animals [16, 37]: 500 mg/kg bw/day
NOAEL for the developing offspring [16, 37]: 165 mg/kg bw/day
NOEL for reproductive parameters [16, 37]: 500 mg/kg bw/day
NOAEL for the FO and FI parent animals, dietary concentration ([16]; rats, 2-generation, diet): 10,000 ppm
NOAEL for the developing offspring, dietary concentration ([16]; rats, 2-generation, diet): 3,300 ppm
NOEL for reproductive parameters, dietary concentration ([16]; rats, 2-generation, diet): 10,000 ppm
Skin irritation [17]: No dermal reaction and No
EC50 ([18]; Human immunodeficiency virus 1): 0.3 nM
growth rate-based EC50 for algae [19]: 11 µg/mL
NOEC, activated sludge ([20]; Table 11): NOEC ≥100 mg/L,
activated sludge respiration ([20]; at 100 mg/L): not inhibited
biodegradation [21]: 93 % of ThOD
EC50 (P. putida) ([22]; Table 11): EC50 >10 mg/L
inhibitory effect (1050) ([22]; highest testable concentration 10 mg/L): > 10 mg/L
IC50 [23]: > 100 µg/mL
time within which almost all of the dose was adsorbed, metabolized and excreted in the urine ([24]; single oral doses of 50 and 750 mg/kg): ≤ 24 h
metabolic pathway ([24]; single oral doses): hydrolysis of the ester bonds to benzoic acid
LC50 to fish [25]: 3.9 µg/mL (≈ 12.4 µM)
effects of dietary administration [26]: No effects
EC50 [27]: 0.02 µg/mL (≈ 0.0636 µM)
LC50 (14 d), earthworm ([28]; 14 d, Table 11): d) >1,000 mg/kg
acute toxicity to earthworm ([28]; 14 days): greater than 1,000 ppm
concentration at which toxicity was observed ([29]; Vero E6, converted with molecular weight given): ~2500 nM
concentration at which toxicity was observed ([29]; Vero E6, first independent trial, quadruplicate): ~78 ng/mL
Sensitisation [30]: No allergic skin reaction and Not

CCN(CC)CCCC(C)Nc1ccnc2cc(Cl)ccc12 (centres unmarked) [Chloroquine phosphate]
CC50 [31]: 40800 nM
EC50 [32]: 3450 nM

CCN(CC)CCCC(C)Nc1ccnc2cc(Cl)ccc12 (centres unmarked) [Chloroquine]
Dissociation Constant [33]: 5.0E−05
SMINA score [33]: −5.4
Vina score [33]: −5.9

CC(C)c1nc(CN(C)C(=O)N[C@@H](CCN2CCOCC2)C(=O)N[C@H](CC[C@H](Cc2ccccc2)NC(=O)OCc2cncs2)Cc2ccccc2)cs1 [Cobicistat]
Dissociation Constant [33]: 5.7E−06
SMINA score [33]: −7.2
Vina score [33]: −7.2

CCN(CCO)CCCC(C)Nc1ccnc2cc(Cl)ccc12 (centres unmarked) [Hydroxychloroquine]
Dissociation Constant [33]: 2.3E−05
SMINA score [33]: −6.4
Vina score [33]: −6.0

CC(C)(C)NC(=O)[C@@H]1CN(Cc2cccnc2)CCN1C[C@@H](O)C[C@@H](Cc1ccccc1)C(=O)N[C@H]1c2ccccc2C[C@H]1O [Indinivir]
EC50 [18, 38]: 5 nM

Cc1cccc(C)c1OCC(=O)N[C@@H](Cc1ccccc1)[C@@H](O)C[C@H](Cc1ccccc1)NC(=O)[C@H](C(C)C)N1CCCNC1=O [Lopinavir]
EC50 [34]: 108000 nM
Dissociation Constant [33]: 3.4E−06
SMINA score [33]: −7.5
Vina score [33]: −7.4

Cc1ccnc2c1NC(=O)c1cccnc1N2C1CC1 [Neverepin]
EC50 [18, 38]: 48 nM

CCOC(=O)C1=C[C@@H](OC(CC)CC)[C@H](NC(C)=O)[C@@H](N)C1 [Oseltamivir]
Dissociation Constant [33]: 1.8E−05
SMINA score [33]: −6.3
Vina score [33]: −6.5

CCC(CC)COC(=O)[C@H](C)N[P@](=O)(OC[C@H]1O[C@@](C#N)(c2ccc3c(N)ncnn23)[C@H](O)[C@@H]1O)Oc1ccccc1 [Remdesivir]
patients who had died [35]: 13.9%
CC50 [31]: 29000 nM

CC(C)c1nc(CN(C)C(=O)N[C@H](C(=O)N[C@@H](Cc2ccccc2)C[C@H](O)[C@H](Cc2ccccc2)NC(=O)OCc2cncs2)C(C)C)cs1 [Retinovir]
EC50 [18, 38]: 2 nM

CC(C)c1nc(CN(C)C(=O)N[C@H](C(=O)N[C@@H](Cc2ccccc2)C[C@H](O)[C@H](Cc2ccccc2)NC(=O)OCc2cncs2)C(C)C)cs1 [Ritonavir]
Dissociation Constant [33]: 2.5E−06
SMINA score [33]: −7.7
Vina score [33]: −7.5

CC(C)(C)NC(=O)[C@@H]1C[C@@H]2CCCC[C@@H]2CN1C[C@@H](O)[C@H](Cc1ccccc1)NC(=O)[C@H](CC(N)=O)NC(=O)c1ccc2ccccc2n1 [Saquinovir]
EC50 [18, 38]: 1.2 nM

CCOC(=O)c1c(CSc2ccccc2)n(C)c2cc(Br)c(O)c(CN(C)C)c12 [Umifenovir]
Dissociation Constant [33]: 2.2E−05
SMINA score [33]: −6.0
Vina score [33]: −6.4

O=c1[nH]cnc2c1ncn2[C@H]1CC[C@@H](CO)O1 [ddI]
EC50 [18, 38]: 5.6 nM

Nc1ccn([C@H]2CC[C@@H](CO)O2)c(=O)n1 [ddc]
EC50 [18, 38]: 1 nM
